Reference: patent US20210030726A1 (MOUNT TAM THERAPEUTICS, INC., priority 2018, published 2021)
Values joined by “and” are separate entries in the source; they are usually repeats but may differ in a detail not shown here. Equal entries are not always repeated. Where two headings read alike, the source gives them in different places.

Columns and labels:
Format in all cases: in vivo
6-OHDA injected mice [1] = assay: Anti-TH immunohistochemistry, 6-OHDA-induced striatal denervation; conditions: 10 mg/kg
Experimental: Immunohistochemistry analysis using anti-tyrosine hydroxylase (TH) antibody was performed in mouse midbrain sections to quantify 6-OHDA-induced striatal denervation in mice injected with 6-OHDA and non-injected (control) sides of the brain. […] In contrast, both the 6-OHDA/rapamycin-treated and the 6-OHDA/Formula I-treated sides of the brain show increased staining with the anti-TH antibody, as indicated by the dark shading in those figures. FIG. 3B presents the mean and standard error of the mean (SEM) of the integrated density of anti-TH antibody staining in the striatum, as well as statistical analysis of the results for the groups of mice.

6-OHDA injected mice [2] = assay: TH protein expression in 6-OHDA-treated striatum; conditions: 3 mg/kg, two-day pre-treatment
Experimental: (§1) Immunohistochemistry analysis using anti-tyrosine hydroxylase (TH) antibody was also performed to quantify 6-OHDA-induced neuronal loss in mice injected with 6-OHDA and non-injected (control) sides of the brain. […] FIG. 4B presents the mean and standard error of the mean (SEM) as well as statistical analysis of the results. […] This staining data was confirmed by staining for TH protein expression in the 6-OHDA-treated striatum.

[3] = Whole blood concentrations after IP administration to mice (LC-MS/MS); conditions: for concentration at 1 h: Day 3, 1.00 hrs; for concentration at 24 h: Day 3, 24.0 hrs
Experimental: These determinations were made using protein precipitation, liquid chromatography (LC), and mass spectrometry (MS/MS). Ten μl aliquots of whole blood and matrix calibration standards were distributed in a 96-well plate; 10 μl aliquots of blank matrix for matrix blanks and control blanks were included as controls. Ten μl of water was added to each sample followed by vortexing. […] This was followed by a five-minute vortex at >3500 rpm. One hundred fifty μl of the resultant supernatant was then transferred to a new 96-well plate and the samples blown to dryness at 35° C. […]

6-OHDA injected mice [4] = assay: Anti-TH immunohistochemistry, 6-OHDA-induced TH+ neuronal loss in SN; conditions: 10 mg/kg
Experimental: as §1

[5] = Brain concentrations after IP administration to mice (LC-MS/MS of brain homogenates); conditions: for Concentration in Mouse Brain, individual animals / concentration at 24 h: Day 3, 24.0 hrs; for Concentration in Mouse Brain, individual animals: Animal ID 1-3; for concentration at 24 h: mouse, brain, ip
Experimental: To carry out these assays using brain homogenates, 20 uL of samples and matrix calibration standards into wells of a 96-well plate, and 10 uL of blank matrix allocated for matrix blanks and control blanks. 160 uL internal standard was then added to all samples except matrix blanks, and 160 uL ACN added to matrix blanks. Samples were then vortexed for 5 minutes and centrifuge for 5 minutes at >3500 rpm. 150 uL of the supernatant was then transferred to a new 96-well plate, and the plates blown down to dryness at 35° C., reconstituted with 90 uL of 70:30 water:acetonitrile (ACN) solution, covered and vortexed prior to analysis. LC and MS conditions were the same as described above for the whole blood analysis.

6-OHDA injected mice [6] = assay: 6-OHDA cylinder test (motor performance); conditions: 10 mg/kg, three days pre-treatment before 6-OHDA (80 μg); seven day test
Experimental: The data presented in FIG. 2B as mean and standard error of the mean (SEM), for a seven day test. Statistical analyses as compared to baseline mice were performed using the one-way Anova test (*: p<0.05). […] Data is presented as mean and SEM. Statistical analyses were performed using one-way Anova test (*: p<0.05; ***: p<0.001. n.s.: not significant.)

[7] = 2 mg/kg or 10 mg/kg IP QD for three days
[8] = mouse, whole blood, intraperitoneal, 10 mg/kg, 10 mg/kg IP QD x 3 days, Animal ID 4-6, read-out: Concentration in Mouse Whole Blood, individual animals
[9] = mouse, whole blood, intraperitoneal, 10 mg/kg, 10 mg/kg IP QD x 3 days, read-out: Concentration in Mouse Whole Blood, Mean

CO[C@H]1C[C@@H]2CC[C@@H](C)[C@@](O)(O2)C(=O)C(=O)N2CCCC[C@H]2C(=O)O[C@H]([C@H](C)C[C@@H]2C[C@@H]3C[C@H]2C[C@H]3O)CC(=O)[C@H](C)/C=C(\C)[C@@H](O)[C@@H](OC)C(=O)[C@H](C)C[C@H](C)/C=C/C=C/C=C/1C [Formula I, 37R-hydroxynorbornylrapamycin]
6-OHDA-induced striatal denervation vs rapamycin (FIG. 3A) (6-OHDA injected mice [1]): also decreased 6-OHDA-induced denervation as compared to rapamycin | 6-OHDA-induced striatal denervation vs vehicle control (TH integrated density, FIG. 3A) (6-OHDA injected mice [1]): decreased 6-OHDA-induced denervation as compared to vehicle control | TH protein expression in 6-OHDA-treated striatum (FIGS. 4C-4F) (6-OHDA injected mice [2]): non-statistically significant difference | Whole blood exposure (in words) [3, 7]: sufficient concentrations in whole blood over time | Concentration in Mouse Whole Blood, individual animals ([3]; 10 mg/kg IP QD x 3 days, Day 2, 1.00 hrs, Animal ID 4-6): AQL (Original value above quantitation limit (1000 ng/mL)) | Concentration in Mouse Whole Blood, individual animals ([3]; 10 mg/kg IP QD x 3 days, Day 2, 6.00 hrs, Animal ID 4-6): AQL (Original value above quantitation limit (1000 ng/mL)) | concentration at 1 h [3, 8]: 2890 ng/mL | concentration at 1 h [3, 9]: 3200 ng/mL | concentration at 2 h ([3]; mouse, whole blood, intraperitoneal, 10 mg/kg, 10 mg/kg IP QD x 3 days, Day 3, 2.00 hrs): 1900 ng/mL | concentration at 6 h ([3]; mouse, whole blood, intraperitoneal, 10 mg/kg, 10 mg/kg IP QD x 3 days, Day 3, 6.00 hrs): 1380 ng/mL | concentration at 24 h [3, 8]: 292 ng/mL | concentration at 24 h [3, 9]: 372 ng/mL | 6-OHDA-induced neuronal loss vs vehicle control (TH-positive somas in SN, FIG. 4A) (6-OHDA injected mice [4]): decreased 6-OHDA-induced neuronal loss as compared to vehicle control | Brain exposure (in words) [5, 7]: sufficient concentrations in brain over time | Concentration in Mouse Brain, individual animals ([5]; Group 1 (2 mg/kg) IP QD x 3 days, 2 mg/kg): 31.1 ng/g and 39.2 ng/g and 68.1 ng/g | Concentration in Mouse Brain, individual animals ([5]; Group 2 (10 mg/kg) IP QD x 3 days, 10 mg/kg): 140 ng/g (2×) and 299 ng/g | concentration at 24 h ([5]; 2 mg/kg, Group 1 (2 mg/kg) IP QD x 3 days): 46.1 ng/g | concentration at 24 h ([5]; 10 mg/kg, Group 2 (10 mg/kg) IP QD x 3 days): 193 ng/g | Contralateral touches, percent total touches (FIG. 2B) (6-OHDA injected mice [6]): outperformed rapamycin and the vehicle control by bringing the number of touches closer to that of baseline mice
